Test results published in patent US5126356A, “Piperidine compounds” (Adir et Compagnie, priority 1989, dated 1992).

How the values were obtained:
[1] = tested on: beagle dogs; test: Anti-ischaemic activity, Protocol 2: moderate coronary stenosis plus auricular pacing in anaesthetised beagle dogs; format: in vivo, dog; conditions: Pacing 2 minutes, 1 mg/kg i.v.
Description: The studies are carried out on beagle dogs weighing from 9 to 12 kg which have been anaesthetised with pentobarbital sodium 30 mg/kg i.v., intubated and ventilated, and subjected to a thoracotomy at the 5th left intercostal space.
An electromagnetic ring connected to a Gould SP 2202 electromagnetic flow meter is placed around the circumflex branch of the left coronary artery, and an inflatable balloon is placed just downstream of that ring for the production of coronary stenoses under the control of the coronary output.
Piezoelectric crystals (5 MHz) connected to a Triton sonomicrometer are implanted in the subendocardium of the left ventricular wall, in an area that is to become ischaemic, for measuring local myocardial contractility; epicardial electrodes are placed in the same area for recording the epicardial electrocardiogram.
Two electrodes are sewn at the right auricle in the region of the sinoauricular node for the protocols including pacing sequences. […]
Myocardial contractility is evaluated by the proportion of systolic shortening of the lengths of the segments between the piezoelectric crystals.
Hypokinesia in the ischaemic area is expressed as percentage variation relative to the contractility measured in the control period.
Modification of the epicardial ECG in the ischaemic area consists in raising the epicardial ST segment measured in millivolts (mV).

[2] = target: Dopamine D2 (Homo sapiens, UniProt P14416); test: Binding to neurotransmitter receptors: D2 ([3H] 205 501); conditions: read-out: K0.5
Chain of Dopamine D2 (P14416 whole entry): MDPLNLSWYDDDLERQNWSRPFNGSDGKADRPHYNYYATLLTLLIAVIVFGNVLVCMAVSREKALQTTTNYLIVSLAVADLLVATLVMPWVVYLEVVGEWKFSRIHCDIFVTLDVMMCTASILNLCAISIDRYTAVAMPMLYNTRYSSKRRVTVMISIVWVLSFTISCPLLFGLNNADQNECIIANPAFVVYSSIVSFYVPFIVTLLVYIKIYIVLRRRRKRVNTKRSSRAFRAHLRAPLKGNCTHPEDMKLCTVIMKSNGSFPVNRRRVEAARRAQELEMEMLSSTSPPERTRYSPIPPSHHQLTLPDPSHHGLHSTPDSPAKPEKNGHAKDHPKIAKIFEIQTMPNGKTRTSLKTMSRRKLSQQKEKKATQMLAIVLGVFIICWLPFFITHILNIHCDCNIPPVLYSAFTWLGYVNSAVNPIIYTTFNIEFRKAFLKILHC

IC50 [2]: 300 nM
Compound: COc1ccc(CSC2CCN(CC=Cc3ccccc3)CC2)c(OC)c1OC [Example 1, 4-(2,3,4-trimethoxybenzylthio)-1-cinnamylpiperidine]
Epicardial ST delta mV ([1]; solvent +6.0): +0.5 mV
Contractility delta % ([1]; solvent -62.6): -42.2%
